# From BigSolDB 2.1
smiles,measurement,setting,value
CC(=O)NC1CCSC1=O (stereo not given),solubility (mole fraction),"in 2-butoxyethanol, 278.15 K",0.0606
same,solubility (mole fraction),"in 2-butoxyethanol, 283.15 K",0.0701
same,solubility (mole fraction),"in 2-butoxyethanol, 288.15 K",0.0776
same,solubility (mole fraction),"in 2-butoxyethanol, 293.15 K",0.0895
same,solubility (mole fraction),"in 2-butoxyethanol, 298.15 K",0.102
same,solubility (mole fraction),"in 2-butoxyethanol, 303.15 K",0.116
same,solubility (mole fraction),"in 2-butoxyethanol, 308.15 K",0.132
same,solubility (mole fraction),"in 2-butoxyethanol, 313.15 K",0.15
same,solubility (mole fraction),"in 2-butoxyethanol, 318.15 K",0.175
same,solubility (mole fraction),"in 2-butoxyethanol, 323.15 K",0.199
same,solubility (mole fraction),"in 2-ethoxyethanol, 278.15 K",0.0952
same,solubility (mole fraction),"in 2-ethoxyethanol, 283.15 K",0.108
same,solubility (mole fraction),"in 2-ethoxyethanol, 288.15 K",0.121
same,solubility (mole fraction),"in 2-ethoxyethanol, 293.15 K",0.141
same,solubility (mole fraction),"in 2-ethoxyethanol, 298.15 K",0.158
same,solubility (mole fraction),"in 2-ethoxyethanol, 303.15 K",0.176
same,solubility (mole fraction),"in 2-ethoxyethanol, 308.15 K",0.199
same,solubility (mole fraction),"in 2-ethoxyethanol, 313.15 K",0.223
same,solubility (mole fraction),"in 2-ethoxyethanol, 318.15 K",0.248
same,solubility (mole fraction),"in 2-ethoxyethanol, 323.15 K",0.278
same,solubility (mole fraction),"in 2-methoxyethanol, 278.15 K",0.132
same,solubility (mole fraction),"in 2-methoxyethanol, 283.15 K",0.15
same,solubility (mole fraction),"in 2-methoxyethanol, 288.15 K",0.169
same,solubility (mole fraction),"in 2-methoxyethanol, 293.15 K",0.189
same,solubility (mole fraction),"in 2-methoxyethanol, 298.15 K",0.21
same,solubility (mole fraction),"in 2-methoxyethanol, 303.15 K",0.233
same,solubility (mole fraction),"in 2-methoxyethanol, 308.15 K",0.255
same,solubility (mole fraction),"in 2-methoxyethanol, 313.15 K",0.279
same,solubility (mole fraction),"in 2-methoxyethanol, 318.15 K",0.31
same,solubility (mole fraction),"in 2-methoxyethanol, 323.15 K",0.344
same,solubility (mole fraction),"in 2-propoxyethanol, 278.15 K",0.0753
same,solubility (mole fraction),"in 2-propoxyethanol, 283.15 K",0.0874
same,solubility (mole fraction),"in 2-propoxyethanol, 288.15 K",0.0976
same,solubility (mole fraction),"in 2-propoxyethanol, 293.15 K",0.11
same,solubility (mole fraction),"in 2-propoxyethanol, 298.15 K",0.123
same,solubility (mole fraction),"in 2-propoxyethanol, 303.15 K",0.138
same,solubility (mole fraction),"in 2-propoxyethanol, 308.15 K",0.158
same,solubility (mole fraction),"in 2-propoxyethanol, 313.15 K",0.179
same,solubility (mole fraction),"in 2-propoxyethanol, 318.15 K",0.203
same,solubility (mole fraction),"in 2-propoxyethanol, 323.15 K",0.23
same,solubility (mole fraction),"in ethanol, 278.15 K",0.0355
same,solubility (mole fraction),"in ethanol, 283.15 K",0.0439
same,solubility (mole fraction),"in ethanol, 288.15 K",0.055
same,solubility (mole fraction),"in ethanol, 293.15 K",0.0699
same,solubility (mole fraction),"in ethanol, 298.15 K",0.0866
same,solubility (mole fraction),"in ethanol, 303.15 K",0.107
same,solubility (mole fraction),"in ethanol, 308.15 K",0.132
same,solubility (mole fraction),"in ethanol, 313.15 K",0.164
same,solubility (mole fraction),"in ethanol, 318.15 K",0.201
same,solubility (mole fraction),"in ethanol, 323.15 K",0.243
same,solubility (mole fraction),"in ethyl acetate, 278.15 K",0.0168
same,solubility (mole fraction),"in ethyl acetate, 283.15 K",0.0199
same,solubility (mole fraction),"in ethyl acetate, 288.15 K",0.0235
same,solubility (mole fraction),"in ethyl acetate, 293.15 K",0.0283
same,solubility (mole fraction),"in ethyl acetate, 298.15 K",0.0325
same,solubility (mole fraction),"in ethyl acetate, 303.15 K",0.0388
same,solubility (mole fraction),"in ethyl acetate, 308.15 K",0.0455
same,solubility (mole fraction),"in ethyl acetate, 313.15 K",0.0546
same,solubility (mole fraction),"in ethyl acetate, 318.15 K",0.0649
same,solubility (mole fraction),"in ethyl acetate, 323.15 K",0.0772
same,solubility (mole fraction),"in methanol, 278.15 K",0.0713
same,solubility (mole fraction),"in methanol, 283.15 K",0.0887
same,solubility (mole fraction),"in methanol, 288.15 K",0.111
same,solubility (mole fraction),"in methanol, 293.15 K",0.137
same,solubility (mole fraction),"in methanol, 298.15 K",0.165
same,solubility (mole fraction),"in methanol, 303.15 K",0.192
same,solubility (mole fraction),"in methanol, 308.15 K",0.222
same,solubility (mole fraction),"in methanol, 313.15 K",0.253
same,solubility (mole fraction),"in methanol, 318.15 K",0.288
same,solubility (mole fraction),"in methanol, 323.15 K",0.321
same,solubility (mole fraction),"in methyl acetate, 278.15 K",0.0229
same,solubility (mole fraction),"in methyl acetate, 283.15 K",0.0271
same,solubility (mole fraction),"in methyl acetate, 288.15 K",0.033
same,solubility (mole fraction),"in methyl acetate, 293.15 K",0.0401
same,solubility (mole fraction),"in methyl acetate, 298.15 K",0.0478
same,solubility (mole fraction),"in methyl acetate, 303.15 K",0.0559
same,solubility (mole fraction),"in methyl acetate, 308.15 K",0.0673
same,solubility (mole fraction),"in methyl acetate, 313.15 K",0.081
same,solubility (mole fraction),"in methyl acetate, 318.15 K",0.0965
same,solubility (mole fraction),"in methyl acetate, 323.15 K",0.119
same,solubility (mole fraction),"in n-butanol, 278.15 K",0.0244
same,solubility (mole fraction),"in n-butanol, 283.15 K",0.0301
same,solubility (mole fraction),"in n-butanol, 288.15 K",0.0388
same,solubility (mole fraction),"in n-butanol, 293.15 K",0.047
same,solubility (mole fraction),"in n-butanol, 298.15 K",0.0574
same,solubility (mole fraction),"in n-butanol, 303.15 K",0.0692
same,solubility (mole fraction),"in n-butanol, 308.15 K",0.0846
same,solubility (mole fraction),"in n-butanol, 313.15 K",0.104
same,solubility (mole fraction),"in n-butanol, 318.15 K",0.128
same,solubility (mole fraction),"in n-butanol, 323.15 K",0.159
same,solubility (mole fraction),"in n-butyl acetate, 278.15 K",0.0119
same,solubility (mole fraction),"in n-butyl acetate, 283.15 K",0.0141
same,solubility (mole fraction),"in n-butyl acetate, 288.15 K",0.0169
same,solubility (mole fraction),"in n-butyl acetate, 293.15 K",0.0194
same,solubility (mole fraction),"in n-butyl acetate, 298.15 K",0.0228
same,solubility (mole fraction),"in n-butyl acetate, 303.15 K",0.0263
same,solubility (mole fraction),"in n-butyl acetate, 308.15 K",0.0307
same,solubility (mole fraction),"in n-butyl acetate, 313.15 K",0.0364
same,solubility (mole fraction),"in n-butyl acetate, 318.15 K",0.0411
same,solubility (mole fraction),"in n-butyl acetate, 323.15 K",0.0496
same,solubility (mole fraction),"in n-pentanol, 278.15 K",0.0232
same,solubility (mole fraction),"in n-pentanol, 283.15 K",0.0294
same,solubility (mole fraction),"in n-pentanol, 288.15 K",0.0362
same,solubility (mole fraction),"in n-pentanol, 293.15 K",0.0429
same,solubility (mole fraction),"in n-pentanol, 298.15 K",0.0532
same,solubility (mole fraction),"in n-pentanol, 303.15 K",0.0646
same,solubility (mole fraction),"in n-pentanol, 308.15 K",0.0769
same,solubility (mole fraction),"in n-pentanol, 313.15 K",0.093
same,solubility (mole fraction),"in n-pentanol, 318.15 K",0.114
same,solubility (mole fraction),"in n-pentanol, 323.15 K",0.14
same,solubility (mole fraction),"in n-propanol, 278.15 K",0.0282
same,solubility (mole fraction),"in n-propanol, 283.15 K",0.0343
same,solubility (mole fraction),"in n-propanol, 288.15 K",0.0456
same,solubility (mole fraction),"in n-propanol, 293.15 K",0.0553
same,solubility (mole fraction),"in n-propanol, 298.15 K",0.0678
same,solubility (mole fraction),"in n-propanol, 303.15 K",0.0839
same,solubility (mole fraction),"in n-propanol, 308.15 K",0.104
same,solubility (mole fraction),"in n-propanol, 313.15 K",0.129
same,solubility (mole fraction),"in n-propanol, 318.15 K",0.159
same,solubility (mole fraction),"in n-propanol, 323.15 K",0.197
same,solubility (mole fraction),"in n-propyl acetate, 278.15 K",0.0131
same,solubility (mole fraction),"in n-propyl acetate, 283.15 K",0.0155
same,solubility (mole fraction),"in n-propyl acetate, 288.15 K",0.0187
same,solubility (mole fraction),"in n-propyl acetate, 293.15 K",0.0217
same,solubility (mole fraction),"in n-propyl acetate, 298.15 K",0.0257
same,solubility (mole fraction),"in n-propyl acetate, 303.15 K",0.0296
same,solubility (mole fraction),"in n-propyl acetate, 308.15 K",0.0351
same,solubility (mole fraction),"in n-propyl acetate, 313.15 K",0.0411
same,solubility (mole fraction),"in n-propyl acetate, 318.15 K",0.0486
same,solubility (mole fraction),"in n-propyl acetate, 323.15 K",0.0575
